According to US10561736B1, “Apoptosis inhibitor formulations for prevention of hearing loss” (Spiral Therapeutics, Inc., priority 2019, dated 2020):
≈ marks a conversion by molar mass, not a printed value. Entries after “also recorded” stand apart in the source; their conditions may differ. Read-outs that look alike come from different tables or passages of the source.

Tests used:
[1] = system: caspase 3; assay: CisPt-induced caspase 3 activation in HEI-OC1 cells; format: cell-based
Experimental: (§1) To identify off-target activities of LPT99, its selectivity against a panel of receptors (44 G-protein-coupled receptors [GPCR] and 4 non-GPCR), 4 ion channels, and 3 transporters were analyzed. The cell line, HEI-OC1 (house ear institute organ of Corti 1), which expresses several characteristic markers of the organ of Corti sensory cells (Kalinec, et al., Audiol. Neurootol. 2003, 8(4), 177-89), was used to evaluate the efficacy of LPT99 in preventing apoptosis due to […]. Cells were pre-incubated with LPT99, followed by […] for 24 hours.

[2] = system: A549 cells; assay: proliferation of non-apoptotic A549 cells; format: cell-based; conditions: A549 cells cultured with LPT99 up to 6 days; reversible on removal
Experimental: The effect of LPT99 on proliferation of non-apoptotic cells was studied. A549 cells were cultured in the presence of LPT99 for up to 6 days; the cell number was monitored by flow cytometry, and doubling time was calculated.

[3] = system: C1-GABA-gated channel; assay: off-target selectivity panel; format: binding
Experimental: as §1
(§2) For 14 of the tested targets-adenosine receptor 3 (A3); cholecystokinin: cholecystokinin receptor 1 (CCK1); melatonin receptor (MT1); neurokinin (NK2 and NK3); opioid (kOP and mOP); serotonin receptors (5HT-1A, 5HT-2A, 5HT-2B and 5HT-7); and vasopressin (ViA; Na+channel site 2 and C1-GABA-gated channel)—the LPT99 affinity was >50%. At 1 μM, the inhibition of 13 of these targets was <50%, indicating a very low affinity with LPT99.

[4] = system: Na+channel site 2; assay: off-target selectivity panel; format: binding
Experimental: as §1, §2

[5] = target: adenosine receptor 3 (A3) (Homo sapiens, UniProt P0DMS8); assay: off-target selectivity panel; format: binding
Experimental: as §1, §2

[6] = target: cholecystokinin receptor 1 (CCK1) (Homo sapiens, UniProt P32238); assay: off-target selectivity panel; format: binding
Experimental: as §1, §2

[7] = target: melatonin receptor (MT1) (Homo sapiens, UniProt P48039); assay: off-target selectivity panel; format: binding
Experimental: as §1, §2

[8] = target: neurokinin (NK2) (Homo sapiens, UniProt P21452); assay: off-target selectivity panel; format: binding
Experimental: as §1, §2

[9] = target: neurokinin (NK3) (Homo sapiens, UniProt P29371); assay: off-target selectivity panel; format: binding
Experimental: as §1, §2

[10] = target: opioid (kOP) (Homo sapiens, UniProt P41145); assay: off-target selectivity panel; format: binding
Experimental: as §1, §2

[11] = target: opioid (mOP) (Homo sapiens, UniProt P35372); assay: off-target selectivity panel; format: binding
Experimental: as §1, §2

[12] = system: panel of receptors (44 GPCR and 4 non-GPCR), 4 ion channels, and 3 transporters; assay: off-target selectivity panel; format: binding; conditions: 10 μM
Experimental: as §1, §2

[13] = target: serotonin receptor 5HT-1A (Homo sapiens, UniProt P08908); assay: off-target selectivity panel; format: binding
Experimental: as §1, §2

[14] = target: serotonin receptor 5HT-2A (Homo sapiens, UniProt P28223); assay: off-target selectivity panel; format: binding
Experimental: as §1, §2

[15] = target: serotonin receptor 5HT-2B (Homo sapiens, UniProt P41595); assay: off-target selectivity panel; format: binding
Experimental: as §1, §2

[16] = target: serotonin receptor 5HT-7 (Homo sapiens, UniProt P34969); assay: off-target selectivity panel; format: binding
Experimental: as §1, §2

[17] = target: vasopressin (ViA) (Homo sapiens, UniProt P37288); assay: off-target selectivity panel; format: binding
Experimental: as §1, §2

[18] = cochlear distribution after IT administration (absorption); format: in vivo; conditions: rat; for concentration at 24 h: cochlea (cochlear homogenate), other: intratympanic (IT), read-out: mean cochlear LPT99 concentration; for peak mean cochlear LPT99 concentration: 1 hour
Text: Cochleae were harvested and rinsed at several timepoints after intratympanic injection of drug product. Drug concentration (y axis) in cochlear homogenates is expressed as nanograms LPT99 per gram of cochlear homogenate. • (i) Absorption
LPT99 cochlear distribution after IT administration was studied in rats. […] LPT99 concentration was quantified with an ultra-performance liquid chromatography tandem mass spectrometry (UPLC-ESI/MS/MS) system.

[19] = solubility; format: physicochemical
[20] = calculation of the maximum recommended starting dose (MRSD); design: species or system human
Experimental: For the calculation of the maximum recommended starting dose (MRSD) the following parameters have been considered:
The total perilymph volume in rat will be then: (Cochlearperilymph+Semicircular canalsperilymph)=STperilymph+SVperilymph+Semicircular canalsperilymph=1.04+1.59+0.9=3.53 μl
The total perilymph volume in human has been described to be 158 μl (Buckingham and Valvassori, Ann. Otol. Rhinol. Laryngol. 2001, 110(2), 113-7).
The amount of LPT99 to be injected in humans is normalized with the volumes of perilymph in rats and humans and the amount injected at the NOAEL dose as follows: LPT99 injected,rats/Volume perilymphrats=LPT99 injected,humans/Volume perilymphhumans 15 μg/3.53 μl=Y μg/158 μl; Y=671.38 μg.
MRSD should not exceed that which is calculated to deliver 1/10th of the estimated perilymph concentration of LPT99 in rat at the NOAEL, when normalized to the perilymph volume in humans. 67.14 μg ( 1/10 of 671.38 μg) is calculated as the maximum mass of LPT99 to be delivered in a volume of 200 μl. The MRSD would be then 67.14 μg/200 μl=535 μM.

melatonin receptor (MT1), sequence (P48039 whole entry): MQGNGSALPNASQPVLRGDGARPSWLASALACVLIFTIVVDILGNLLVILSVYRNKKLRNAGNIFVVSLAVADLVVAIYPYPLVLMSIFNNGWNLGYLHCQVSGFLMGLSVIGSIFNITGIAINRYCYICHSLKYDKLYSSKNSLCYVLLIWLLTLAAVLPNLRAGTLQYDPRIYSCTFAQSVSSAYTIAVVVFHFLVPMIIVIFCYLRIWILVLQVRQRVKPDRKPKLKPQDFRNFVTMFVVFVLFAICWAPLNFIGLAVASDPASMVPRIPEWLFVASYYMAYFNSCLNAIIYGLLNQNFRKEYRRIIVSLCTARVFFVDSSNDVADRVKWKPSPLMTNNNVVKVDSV
neurokinin (NK3), sequence (P29371 whole entry): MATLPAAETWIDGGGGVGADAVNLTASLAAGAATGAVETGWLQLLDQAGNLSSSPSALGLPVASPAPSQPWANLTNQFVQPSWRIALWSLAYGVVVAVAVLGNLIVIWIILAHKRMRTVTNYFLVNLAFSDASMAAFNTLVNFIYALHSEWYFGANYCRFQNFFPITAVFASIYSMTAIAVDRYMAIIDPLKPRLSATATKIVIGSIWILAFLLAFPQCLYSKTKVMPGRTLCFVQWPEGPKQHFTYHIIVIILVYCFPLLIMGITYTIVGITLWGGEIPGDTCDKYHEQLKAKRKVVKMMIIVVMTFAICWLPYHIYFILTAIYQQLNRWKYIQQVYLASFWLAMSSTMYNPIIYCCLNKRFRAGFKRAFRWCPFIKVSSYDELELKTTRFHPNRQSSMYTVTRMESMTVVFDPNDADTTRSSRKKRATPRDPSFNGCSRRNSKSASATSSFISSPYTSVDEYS
vasopressin (ViA), sequence (P37288 whole entry): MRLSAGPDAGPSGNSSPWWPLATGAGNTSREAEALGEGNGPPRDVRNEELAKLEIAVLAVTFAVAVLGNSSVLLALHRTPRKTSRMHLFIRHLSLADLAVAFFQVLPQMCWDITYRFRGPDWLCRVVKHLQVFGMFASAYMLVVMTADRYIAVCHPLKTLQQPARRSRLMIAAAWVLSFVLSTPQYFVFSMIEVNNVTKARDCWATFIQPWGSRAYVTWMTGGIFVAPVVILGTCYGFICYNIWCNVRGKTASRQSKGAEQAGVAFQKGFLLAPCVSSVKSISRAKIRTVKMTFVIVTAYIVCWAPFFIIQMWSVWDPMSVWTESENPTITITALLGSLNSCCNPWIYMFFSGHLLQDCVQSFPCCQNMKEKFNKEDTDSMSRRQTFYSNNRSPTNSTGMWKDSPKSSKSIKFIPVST
serotonin receptor 5HT-2A, sequence (P28223 whole entry): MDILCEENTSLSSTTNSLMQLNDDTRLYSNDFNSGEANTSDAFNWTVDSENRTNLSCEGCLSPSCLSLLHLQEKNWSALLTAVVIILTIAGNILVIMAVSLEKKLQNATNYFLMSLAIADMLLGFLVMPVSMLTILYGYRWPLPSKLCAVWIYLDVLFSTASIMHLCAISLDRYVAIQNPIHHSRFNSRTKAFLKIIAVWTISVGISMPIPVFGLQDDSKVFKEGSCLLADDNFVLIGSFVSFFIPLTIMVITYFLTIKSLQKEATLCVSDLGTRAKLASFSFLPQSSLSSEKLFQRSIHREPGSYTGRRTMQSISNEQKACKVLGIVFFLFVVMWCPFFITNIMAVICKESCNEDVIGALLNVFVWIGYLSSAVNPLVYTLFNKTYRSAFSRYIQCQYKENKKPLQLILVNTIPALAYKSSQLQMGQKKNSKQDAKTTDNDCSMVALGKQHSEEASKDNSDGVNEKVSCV
cholecystokinin receptor 1 (CCK1), sequence (P32238 whole entry): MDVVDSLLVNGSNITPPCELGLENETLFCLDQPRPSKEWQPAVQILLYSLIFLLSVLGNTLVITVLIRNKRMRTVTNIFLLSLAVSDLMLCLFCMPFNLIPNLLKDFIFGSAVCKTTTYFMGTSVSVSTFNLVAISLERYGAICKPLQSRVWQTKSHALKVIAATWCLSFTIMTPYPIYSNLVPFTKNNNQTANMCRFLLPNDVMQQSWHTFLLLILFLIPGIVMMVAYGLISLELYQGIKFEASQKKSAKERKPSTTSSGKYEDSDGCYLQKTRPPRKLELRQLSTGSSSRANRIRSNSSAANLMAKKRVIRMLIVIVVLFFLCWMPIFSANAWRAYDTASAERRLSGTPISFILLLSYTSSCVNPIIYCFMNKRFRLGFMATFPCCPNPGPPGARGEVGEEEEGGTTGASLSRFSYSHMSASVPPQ
opioid (mOP), sequence (P35372 whole entry): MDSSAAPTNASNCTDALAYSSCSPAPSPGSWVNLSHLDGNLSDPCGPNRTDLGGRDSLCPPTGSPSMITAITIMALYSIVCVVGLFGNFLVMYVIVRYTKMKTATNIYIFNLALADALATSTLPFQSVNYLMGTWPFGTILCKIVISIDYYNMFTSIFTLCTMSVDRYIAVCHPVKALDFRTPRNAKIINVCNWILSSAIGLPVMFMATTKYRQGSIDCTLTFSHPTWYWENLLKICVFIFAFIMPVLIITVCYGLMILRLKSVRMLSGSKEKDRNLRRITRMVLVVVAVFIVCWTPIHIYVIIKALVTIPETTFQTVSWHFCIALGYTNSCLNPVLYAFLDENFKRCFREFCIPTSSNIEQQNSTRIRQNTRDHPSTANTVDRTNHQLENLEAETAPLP
serotonin receptor 5HT-7, sequence (P34969 whole entry): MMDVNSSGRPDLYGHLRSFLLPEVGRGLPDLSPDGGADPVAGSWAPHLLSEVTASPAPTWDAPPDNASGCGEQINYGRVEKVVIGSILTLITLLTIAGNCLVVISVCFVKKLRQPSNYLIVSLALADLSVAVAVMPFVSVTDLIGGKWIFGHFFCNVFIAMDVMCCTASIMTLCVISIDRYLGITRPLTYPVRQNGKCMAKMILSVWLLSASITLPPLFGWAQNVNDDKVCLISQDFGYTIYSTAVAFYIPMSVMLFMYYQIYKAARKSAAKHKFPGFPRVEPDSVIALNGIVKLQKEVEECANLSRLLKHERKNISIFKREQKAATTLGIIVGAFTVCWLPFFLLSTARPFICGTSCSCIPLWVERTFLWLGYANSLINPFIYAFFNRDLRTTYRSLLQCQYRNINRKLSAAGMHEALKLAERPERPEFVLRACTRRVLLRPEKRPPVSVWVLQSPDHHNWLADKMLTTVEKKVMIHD
adenosine receptor 3 (A3), sequence (P0DMS8 whole entry): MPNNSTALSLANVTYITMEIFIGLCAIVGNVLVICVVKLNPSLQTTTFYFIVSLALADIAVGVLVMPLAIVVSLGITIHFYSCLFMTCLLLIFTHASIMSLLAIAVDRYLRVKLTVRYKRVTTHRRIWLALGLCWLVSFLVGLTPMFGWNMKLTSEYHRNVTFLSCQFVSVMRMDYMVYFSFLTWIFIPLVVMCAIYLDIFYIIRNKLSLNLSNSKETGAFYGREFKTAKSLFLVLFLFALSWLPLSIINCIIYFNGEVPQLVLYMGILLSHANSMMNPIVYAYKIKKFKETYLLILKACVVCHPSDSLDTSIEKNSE
neurokinin (NK2), sequence (P21452 whole entry): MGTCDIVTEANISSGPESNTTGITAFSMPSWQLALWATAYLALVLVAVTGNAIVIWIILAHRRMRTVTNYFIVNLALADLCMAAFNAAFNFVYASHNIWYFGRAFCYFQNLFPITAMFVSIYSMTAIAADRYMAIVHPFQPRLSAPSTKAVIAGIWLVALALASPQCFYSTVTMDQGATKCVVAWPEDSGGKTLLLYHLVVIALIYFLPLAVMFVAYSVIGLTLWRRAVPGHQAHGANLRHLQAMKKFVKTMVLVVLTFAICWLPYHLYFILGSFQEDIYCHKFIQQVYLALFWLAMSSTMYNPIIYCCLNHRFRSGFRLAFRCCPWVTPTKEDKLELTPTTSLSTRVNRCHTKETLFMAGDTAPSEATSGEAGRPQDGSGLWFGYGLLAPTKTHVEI
serotonin receptor 5HT-1A, sequence (P08908 whole entry): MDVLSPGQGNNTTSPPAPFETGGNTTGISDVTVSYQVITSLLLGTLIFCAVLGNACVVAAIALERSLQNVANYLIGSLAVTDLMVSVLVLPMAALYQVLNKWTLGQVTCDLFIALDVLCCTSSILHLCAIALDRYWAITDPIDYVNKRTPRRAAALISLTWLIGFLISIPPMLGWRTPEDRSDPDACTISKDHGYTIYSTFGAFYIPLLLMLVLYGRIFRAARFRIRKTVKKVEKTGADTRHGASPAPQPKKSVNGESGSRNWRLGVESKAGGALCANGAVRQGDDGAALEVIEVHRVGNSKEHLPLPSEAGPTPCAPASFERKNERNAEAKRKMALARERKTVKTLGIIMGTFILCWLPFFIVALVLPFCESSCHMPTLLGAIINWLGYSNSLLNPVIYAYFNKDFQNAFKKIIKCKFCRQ
serotonin receptor 5HT-2B, sequence (P41595 whole entry): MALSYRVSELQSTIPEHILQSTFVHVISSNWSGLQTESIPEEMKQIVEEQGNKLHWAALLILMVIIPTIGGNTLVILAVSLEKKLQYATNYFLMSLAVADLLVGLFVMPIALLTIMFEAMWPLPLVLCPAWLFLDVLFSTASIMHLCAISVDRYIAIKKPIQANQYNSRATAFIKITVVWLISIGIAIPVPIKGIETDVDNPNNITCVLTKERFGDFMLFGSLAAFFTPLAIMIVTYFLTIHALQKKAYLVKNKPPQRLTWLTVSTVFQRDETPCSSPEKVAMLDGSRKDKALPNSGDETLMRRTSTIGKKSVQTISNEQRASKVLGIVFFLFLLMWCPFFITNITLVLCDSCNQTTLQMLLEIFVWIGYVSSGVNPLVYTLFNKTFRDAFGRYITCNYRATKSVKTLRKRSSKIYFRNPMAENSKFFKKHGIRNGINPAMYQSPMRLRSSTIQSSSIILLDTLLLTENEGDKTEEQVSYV

Q: With COc1ccc2[nH]cc(CCNC(=O)CC3C(=O)N(CCc4ccc(Cl)cc4Cl)CC(=O)N3CCc3cccs3)c2c1 (stereo not shown) [LPT99, 2-(4-(2,4-dichlorophenethyl)-3,6-dioxo-1-(2-(thiophen-2-yl)ethyl)piperazin-2-yl)-N-(2-(5-methoxy-1H-indol-3-yl)ethyl)acetamide] as the compound, how does the “caspase 3 activation in the cellular model” value ([1]; cellular model of CisPt-induced apoptosis) read?
A: reduced caspase-3 activation

Q: And the IC50 ([1]; read-out: 50% inhibitory concentration (IC50) for caspase 3, HEI-OC1 cells pre-incubated with LPT99, then CisPt for 24 hours)?
A: 5.2 ± 1.6 µM

Q: What about the “cellular proliferation of non-apoptotic cells” value [2] of the same compound?
A: delayed cellular proliferation

Q: And the “inhibition C1-GABA-gated channel” value ([3]; 1 μM)?
A: < 50%

Q: And the “affinity (inhibition) C1-GABA-gated channel” value ([3]; 10 μM)?
A: > 50%

Q: What about the “inhibition Na+channel site 2” value ([4]; 1 μM) of the same compound?
A: < 50%

Q: What about the “affinity (inhibition) Na+channel site 2” value ([4]; 10 μM) of the same compound?
A: > 50%

Q: And the inhibition at 1 µM ([5]; 1 μM)?
A: < 50%

Q: And the inhibition at 10 µM ([5]; 10 μM, read-out: affinity (inhibition) A3)?
A: > 50%

Q: What about the inhibition at 1 µM ([6]; 1 μM) of the same compound?
A: < 50%

Q: What about the inhibition at 10 µM ([6]; 10 μM, read-out: affinity (inhibition) CCK1) of the same compound?
A: > 50%

Q: And the inhibition at 0.1 µM ([7]; 0.1 μM)?
A: 6%

Q: And the inhibition at 1 µM ([7]; 1 μM)?
A: 53%

Q: What about the inhibition at 10 µM ([7]; 10 μM, read-out: affinity (inhibition) MT1) of the same compound?
A: > 50%

Q: What about the inhibition at 1 µM ([8]; 1 μM) of the same compound?
A: < 50%

Q: What about the inhibition at 10 µM ([8]; 10 μM, read-out: affinity (inhibition) NK2) of the same compound?
A: > 50%

Q: And the inhibition at 1 µM ([9]; 1 μM)?
A: < 50%

Q: What about the inhibition at 10 µM ([9]; 10 μM, read-out: affinity (inhibition) NK3) of the same compound?
A: > 50%

Q: And the inhibition at 1 µM ([10]; 1 μM)?
A: < 50%

Q: And the inhibition at 10 µM ([10]; 10 μM, read-out: affinity (inhibition) kOP)?
A: > 50%

Q: What about the inhibition at 1 µM ([11]; 1 μM) of the same compound?
A: < 50%

Q: What about the inhibition at 10 µM ([11]; 10 μM, read-out: affinity (inhibition) mOP) of the same compound?
A: > 50%

Q: What about the “in vitro inhibition, 41 of the tested targets” value [12] of the same compound?
A: < 50%

Q: And the inhibition at 1 µM ([13]; 1 μM)?
A: < 50%

Q: What about the inhibition at 10 µM ([13]; 10 μM, read-out: affinity (inhibition) 5HT-1A) of the same compound?
A: > 50%

Q: And the inhibition at 1 µM ([14]; 1 μM)?
A: < 50%

Q: And the inhibition at 10 µM ([14]; 10 μM, read-out: affinity (inhibition) 5HT-2A)?
A: > 50%

Q: And the inhibition at 1 µM ([15]; 1 μM)?
A: < 50%

Q: And the inhibition at 10 µM ([15]; 10 μM, read-out: affinity (inhibition) 5HT-2B)?
A: > 50%

Q: What about the inhibition at 1 µM ([16]; 1 μM) of the same compound?
A: < 50%

Q: What about the inhibition at 10 µM ([16]; 10 μM, read-out: affinity (inhibition) 5HT-7) of the same compound?
A: > 50%

Q: And the inhibition at 1 µM ([17]; 1 μM)?
A: < 50%

Q: And the inhibition at 10 µM ([17]; 10 μM, read-out: affinity (inhibition) ViA)?
A: > 50%

Q: And the concentration at 24 h ([18]; IT 50 μM)?
A: 1.8 ng/g

Q: And the concentration at 24 h ([18]; IT 100 μM)?
A: 13.9 ng/g

Q: And the concentration at 24 h ([18]; IT 200 μM)?
A: 13.4 ng/g

Q: What about the “distribution after IT administration” value ([18]; IT) of the same compound?
A: distributes locally to the cochlea; also recorded: distributed to cochlea in a dose-dependent manner

Q: And the “peak mean cochlear LPT99 concentration” value ([18]; IT 50 μM)?
A: 328.5 ng/g cochlea

Q: What about the “peak mean cochlear LPT99 concentration” value ([18]; IT 100 μM) of the same compound?
A: 491.3 ng/g cochlea

Q: And the “peak mean cochlear LPT99 concentration” value ([18]; IT 200 μM)?
A: 611.1 ng/g cochlea

Q: And the “increase in drug solubility” value ([19]; 14.7 wt/wt % vehicle vs aqueous)?
A: 332 fold

Q: What about the solubility ([19]; aqueous (not further specified), read-out: aqueous solubility) of the same compound?
A: 2.4 µM (≈ 1.51 µg/mL)

Q: What about the solubility ([19]; aqueous with cosolvent or surfactant or cyclodextrin, 14.7 wt/wt %, read-out: solubility in 14.7 wt/wt % vehicle) of the same compound?
A: ≥ 797 µM

Q: What about the MRSD ([20]; human) of the same compound?
A: 535 µM

Q: And the “maximum mass of LPT99 to be delivered (1/10 of NOAEL equivalent)” value ([20]; in a volume of 200 μl)?
A: 67.14 µg

Q: What about the “amount of LPT99 to be injected in humans normalized by perilymph volume at the NOAEL” value ([20]; rat 3.53 μl vs human 158 μl perilymph) of the same compound?
A: 671.38 µg
